Laboratory results as given in paper PMC4053376, “Characterization of the Xiamenmycin Biosynthesis Gene Cluster in Streptomyces xiamenensis 318” (PLoS ONE, 2014).

Assays:
XimB = target: T1, XimB (Streptomyces xiamenensis, UniProt U5PZQ3); assay: membrane fraction, product […] by UPLC-Q-TOF-MS; assay type: biochemical; conditions: 0.3 mM GPP, 0.5 mM 4HB, 5 mM MgSO4, 50 mM Tris-HCl pH 7.5, 30 °C
T1 construct: full-length 313 aa; N-terminal His tag, pET28a, E. coli BL21(DE3) membrane fraction; twelve predicted transmembrane helices
T1 sequence (U5PZQ3 1-313): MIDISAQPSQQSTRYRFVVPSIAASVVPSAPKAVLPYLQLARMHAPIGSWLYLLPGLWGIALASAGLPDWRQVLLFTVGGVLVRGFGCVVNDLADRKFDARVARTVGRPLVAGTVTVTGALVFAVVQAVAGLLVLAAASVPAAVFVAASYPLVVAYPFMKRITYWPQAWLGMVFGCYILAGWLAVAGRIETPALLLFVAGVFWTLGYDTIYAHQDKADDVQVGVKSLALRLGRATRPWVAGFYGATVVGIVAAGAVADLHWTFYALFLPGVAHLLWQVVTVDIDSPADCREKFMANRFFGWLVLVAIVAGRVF

XimC = target: T2, XimC (Streptomyces xiamenensis, UniProt U5Q2Q4); assay: product 4HB by GC-MS; assay type: biochemical; conditions: 50 mM Tris-HCl pH 7.5, 30 °C, 30 min
T2 construct: full-length 196 aa; N-terminal His6 tag, pET28a, E. coli BL21(DE3), Ni-NTA purified
T2 sequence (U5Q2Q4 entry or part of it): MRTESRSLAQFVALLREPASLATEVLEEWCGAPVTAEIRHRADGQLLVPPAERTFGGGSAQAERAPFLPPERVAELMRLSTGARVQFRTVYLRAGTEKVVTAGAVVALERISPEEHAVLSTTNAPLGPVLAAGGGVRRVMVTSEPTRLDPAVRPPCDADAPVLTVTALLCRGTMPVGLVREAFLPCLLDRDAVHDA

| SMILES | membrane fraction, product 2 by UPLC-Q-TOF-MS (XimB) | product 4HB by GC-MS (XimC) |
| --- | --- | --- |
| CC(C)=CCC/C(C)=C/COP(=O)(O)OP(=O)(O)O [geranyl diphosphate] | membrane fraction containing XimB was incubated with 4HB and GPP | – |
| C=C(O[C@@H]1C=C(C(=O)O)C=C[C@H]1O)C(=O)O [chorismate] | – | incubated with chorismate, the formation of 4HB was observed and confirmed by GC-MS |
| O=C(O)c1ccc(O)cc1 [4-hydroxybenzoic acid] | membrane fraction containing XimB was incubated with 4HB and GPP | – |
